# Assay results taken from PubChem BioAssay (NCI).
#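 In this assay, cells in 96-well plates receive the compound at five concentrations for 48 hours. Endpoints are linearly interpolated between the surrounding concentrations. The concentration for 50% growth inhibition is given as GI50. At the TGI there is no net growth.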
# Experiments:
# Assay in all cases: NCI tumour cell line growth inhibition, 48 h
# MOLT-4 leukemia = system: MOLT-4 leukemia
# U251 CNS = system: U251 CNS
# K-562 leukemia = system: K-562 leukemia
# CAKI-1 renal = system: CAKI-1 renal
# UO-31 renal = system: UO-31 renal
# IGROV1 ovarian = system: IGROV1 ovarian
# SNB-19 CNS = system: SNB-19 CNS
# COLO 205 colon = system: COLO 205 colon
# EKVX NSCLC = system: EKVX NSCLC
# BT-549 breast = system: BT-549 breast
SMILES,TGI (MOLT-4 leukemia) [µM],TGI (U251 CNS) [µM],TGI (K-562 leukemia) [µM],TGI (CAKI-1 renal) [µM],TGI (UO-31 renal) [µM],TGI (IGROV1 ovarian) [µM],TGI (SNB-19 CNS) [µM],TGI (COLO 205 colon) [µM],TGI (EKVX NSCLC) [µM],TGI (BT-549 breast) [µM],GI50 (MOLT-4 leukemia) [µM],GI50 (U251 CNS) [µM],GI50 (K-562 leukemia) [µM],GI50 (COLO 205 colon) [µM],GI50 (CAKI-1 renal) [µM],GI50 (UO-31 renal) [µM],GI50 (IGROV1 ovarian) [µM],GI50 (SNB-19 CNS) [µM],GI50 (EKVX NSCLC) [µM],GI50 (BT-549 breast) [µM]
O=C(N=Nc1ccccc1Cl)NNc1ccccc1Cl,82.9,> 100,73.1,> 100,> 100,43.2,> 100,–,–,–,–,–,–,–,–,–,–,–,–,–
O=C1NC(N2CCOCC2)=N/C1=C\c1ccc(O)cc1,> 100,> 100,–,> 100,> 100,> 100,> 100,> 100,> 100,> 100,–,–,–,–,–,–,–,–,–,–
O=C(OCc1ccccc1)N1CCNCCNCCN(C(=O)OCc2ccccc2)CCNCC1,38.9,33.7,29.8,73.8,27.8,91.3,> 100,26.8,65.1,> 100,–,–,–,–,–,–,–,–,–,–
O=c1[nH]c(=O)n(C2OC(CO)C(O)C2O)cc1OCCCc1ccccc1 (configuration not stated),> 100,–,–,> 100,–,> 100,> 100,> 100,> 100,–,–,–,–,–,–,–,–,–,–,–
O=[N+]([O-])/C(C(Cl)=C(Cl)Cl)=C(/Nc1cccc2cccnc12)n1nnc2ccccc21,> 100,–,> 100,26.3,29.9,–,33.1,31.1,> 100,35.8,–,–,–,–,–,–,–,–,–,–
O=c1[nH]nc(Cc2ccc(Cl)cc2)n1/N=C/c1ccc([N+](=O)[O-])o1,> 26.6,> 34.4,> 31,> 39,> 24,11.2,33.3,> 20.1,13.8,6.8,–,–,–,–,–,–,–,–,–,–
NC(=O)CN1C=CCC(C(N)=O)=C1,> 100,> 100,> 100,> 100,> 100,> 100,> 100,> 100,> 100,> 100,–,–,–,–,–,–,–,–,–,–
CCCCCCCCC#CCCCCCCCCCC[C@@H]1C(=O)O[C@H](C)[C@@H]1O (tested in a mixture with another compound),33.5,> 100,21.4,29.1,35.3,32.7,38.1,> 100,54.9,38.5,–,–,–,–,–,–,–,–,–,–
O=C(O)c1cccc(NC(C(=O)c2ccccc2)c2ccccc2)c1 (configuration not stated),> 100,> 100,> 100,> 100,> 100,> 100,> 100,> 100,> 100,–,–,–,–,–,–,–,–,–,–,–
Oc1ccc(-c2nc3ccccc3s2)cc1,> 100,> 100,> 100,58.3,> 100,> 100,> 100,> 100,> 100,> 100,–,–,–,–,–,–,–,–,–,–
COc1ccccc1C1C(C#N)=C(N)Oc2n[nH]c(C)c21 (configuration not stated),> 100,> 100,> 100,> 100,> 100,95.7,> 100,> 100,> 100,> 100,> 100,92.9,> 100,> 100,> 100,> 100,37.7,> 100,> 100,> 100
CC(C)(C)OC(=O)c1ccc(NCC2=C(Br)C(=O)C=CC2=O)cc1,45.7,> 66.6,> 58,26.8,28.6,> 66.9,> 100,33.6,53.9,26.5,–,–,–,–,–,–,–,–,–,–
C#CCOC(=O)c1ccc(OC(C)=O)cc1,> 100,> 100,> 100,> 100,> 100,> 100,> 100,> 100,> 100,> 100,–,–,–,–,–,–,–,–,–,–
CC1(C)O[C@@H](C[C@]2(C#N)C[C@H](CCl)OC(C)(C)O2)C[C@@H](C#N)O1,> 100,> 100,> 100,> 100,> 100,> 100,> 100,> 100,> 100,–,–,–,–,–,–,–,–,–,–,–
O=C(Nc1nn[nH]n1)c1nc(-c2ccccc2)cc(=O)[nH]1,> 100,> 100,> 100,> 100,> 100,> 100,> 100,> 100,> 100,> 100,–,–,–,–,–,–,–,–,–,–
CCOc1cc2c(cc1O)C(O)C[C@@H]1[C@@H]2CC[C@]2(C)[C@@H](O)CC[C@@H]12 (some centres not stated),> 100,–,> 36.4,> 100,> 100,> 100,> 61.8,60.8,> 100,> 100,–,–,–,–,–,–,–,–,–,–
CCN(CC)C(=O)Cn1c2c(c3ccccc31)CCCC2,–,–,> 100,> 100,> 100,> 100,> 100,> 100,> 100,> 100,–,–,–,–,–,–,–,–,–,–
COC(NC(=O)Nc1ccccc1C)(C(F)(F)F)C(F)(F)F,> 100,> 100,> 100,–,> 100,> 100,> 100,> 100,–,> 100,–,–,–,–,–,–,–,–,–,–
CC(C)(C)C1=C(Br)C(O)(C(C)(C)C)OP1(=O)c1ccccc1 (configuration not stated),> 100,> 100,> 100,> 100,–,> 100,> 100,> 100,> 100,–,–,–,–,–,–,–,–,–,–,–
CCN(CC)CC1CCCCN1CC(=O)N1CC(C)C(=O)Nc2ccccc21 (configuration not stated),> 100,> 100,> 100,> 100,> 100,> 100,> 100,> 100,–,–,–,–,–,–,–,–,–,–,–,–
OC(NN=C1CCCC1)(C(F)(F)Cl)C(F)(F)Cl,> 10,> 10,> 10,> 10,–,> 10,> 10,> 10,> 10,> 10,–,–,–,–,–,–,–,–,–,–
CCCCN(C)/N=N/c1nc[nH]c1C(N)=O,> 100,> 100,> 100,> 100,> 100,> 100,> 100,> 100,> 100,–,–,–,–,–,–,–,–,–,–,–
